# Data taken from US5661139A, “Bis-(2-aryl) hydrazones” (Alteon Inc., priority 1995, dated 1997).
# Tested on: fixed protein (gelatin, i.e., collagen) surface
# Assay: Surface browning experiment on gelatin/paper disks with glucose-6-phosphate
# Details: Peridex at a final concentration of 0.04% chlorhexidine, with 100 Mm glucose-6-phosphate, one week at 50° C.
# Method: To further study the ability of inhibitors of nonenzymatic browning to prevent the discoloration of protein on a surface, such as that which occurs on the tooth surface, the following surface browning experiment is performed. As a substitute for a pellicle-covered tooth surface, unexposed and developed photographic paper is used to provide a fixed protein (gelatin, i.e., collagen) surface on a paper backing. Five millimeter circles are punched and immersed for one week at 50° C. in a solution of 100 Mm glucose-6-phosphate in a 0.5M phosphate buffer, pH 7.4, containing 3 Mm sodium azide. Glucose-6-phosphate is a sugar capable of participating in nonenzymatic browning at a more rapid rate than glucose. In addition to the glucose-6-phosphate, chlorhexidine and/or a compound of Formula I are included. After incubation, the gelatin/paper disks are rinsed with water, observed for brown color, and photographed.
row,Compound,browning of the gelatin/paper disks
1,[H]/N=C(\N/C(=N/[H])NCCCCCCNC(=N)NC(=N)Nc1ccc(Cl)cc1)Nc1ccc(Cl)cc1 [chlorhexidine],significant browning

# Tested on: glycated bovine serum albumin (AGE-BSA) cross-linking to rat tail tendon collagen
# Assay: not given
# Details: 4 h, pH 7.4
row,Compound,IC50 [µM]
1,CC(C=NNc1ccc(C(=O)O)cc1)=NNc1ccc(C(=O)O)cc1 [Methyl Glyoxal Bis-(4-Hydrazinobenzoic Acid) Hydrazone],11500
2,CC(C=NNc1ccccc1C(=O)O)=NNc1ccccc1C(=O)O [Methylglyoxal Bis-(2-Hydrazinobenzoic Acid) Hydrazone],40

# Tested on: not listed separately
# Assay: Inhibition of cross-linking of N-acetyl glycyl-lysine methyl ester in the presence of ribose (fluorescence)
# Type: biochemical
# Details: 0.5M sodium phosphate buffer pH 7.4, ribose, 37 C, 16-24 hours; fluorescence ex 350 nm / em 400 nm
# Method: N-acetylglycyllysine methyl ester (DP in formula below) Ribose (R in formula below)
# 0.5M sodium phosphate buffer pH 7.4 N-acetylglycyllysine methyl ester in 0.5M sodium phosphate buffer, pH 7.4
# Test compounds dissolved in the above buffer and the pH is adjusted to 7.4, if necessary
# Reaction mixtures are prepared as follows:
# and incubated at 37 C for 16-24 hours. At the end of the incubation period, the fluroescence is read using an excitation wavelength of 350 nm and emission wavelenth of 400 nm. The inhibition of the cross-linking is calculated from the decrease in the fluorescence in the presence of the test compounds according to the formula:
# Inhibition (%)=100×[DPRC fluorescence-RC fluorescence]/DPR
row,Compound,IC50 [µM]
1,CC(C=NNc1ccccc1C(=O)OCCOCCOCCO)=NNc1ccccc1C(=O)OCCOCCOCCO [Methyl Glyoxal Bis-(Triethylene Glycol 2-Hydrazinobenzoate) Hydrazone],1530
2,Methyl Glyoxal Bis-[(1-Hydroxymethyl-1-Acetoxy)-2-Hydrazinobenzoate] Hydrazone,764
3,COCCOCCOC(=O)c1ccccc1NN=CC(C)=NNc1ccccc1C(=O)OCCOCCOC [Methyl Glyoxal Bis-(Diethylene Glycol Methyl Ether 2-Hydrazinobenzoate) Hydrazone],> 10000
4,CC(C=NNc1ccccc1)=NNc1ccccc1 [Methyl Glyoxal Bis-(Phenylhydrazine) Hydrazone],> 10000
5,CC(C=NNc1ccc(C(=O)O)cc1)=NNc1ccc(C(=O)O)cc1 [Methyl Glyoxal Bis-(4-Hydrazinobenzoic Acid) Hydrazone],118
6,CC(C=NNc1ccccc1C(=O)OCCO)=NNc1ccccc1C(=O)OCCO [Methyl Glyoxal Bis-[1-(2-Hydroxyethane)-2-Hydrazinobenzoate] Hydrazone],3000
7,CCOC(=O)c1ccccc1NN=CC(C)=NNc1ccccc1C(=O)OCC [Methyl Glyoxal Bis-(Diethyl 2-Hydrazinobenzoate) Hydrazone],10000
8,CC(C=NNc1ccccc1C(=O)OCc1ccncc1)=NNc1ccccc1C(=O)OCc1ccncc1 [Methyl Glyoxal Bis-[4-Methylpyridyl)-2-Hydrazinobenzoate] Hydrazone],1240
9,CC(C=NNc1ccccc1C(=O)OCCOP(=O)(O)O)=NNc1ccccc1C(=O)OCCOP(=O)(O)O [Methyl Glyoxal Bis-(2-Hydroxyethylphosphate-2-Hydrazinobenzoate) Hydrazone],597
10,CC(C=NNc1ccccc1C(=O)OCc1ccc([N+](=O)[O-])cc1)=NNc1ccccc1C(=O)OCc1ccc([N+](=O)[O-])cc1,10000
11,COC(=O)c1ccc(NN=CC(C)=NNc2ccc(C(=O)OC)cc2)cc1 [Methyl Glyoxal Bis-(Dimethyl 4-Hydrazinobenzoate) Hydrazone],10000
12,CC(C=NNc1ccccc1C(=O)O)=NNc1ccccc1C(=O)O [Methylglyoxal Bis-(2-Hydrazinobenzoic Acid) Hydrazone],156
13,COC(=O)c1ccccc1NN=CC(C)=NNc1ccccc1C(=O)OC [Methyl Glyoxal Bis-(Dimethyl 2-Hydrazinobenzoate)Hydrazone],> 10000
14,"CC(C=NNc1ccccc1C(=O)OCC(O)CO)=NNc1ccccc1C(=O)OCC(O)CO (centres unmarked) [Methyl Glyoxal Bis-[1-(2,3-Dihydroxypropane)-2-Hydrazinobenzoate] Hydrazone]",> 3000
